The target in the experiment is human EP4 receptor (Homo sapiens (Human), UniProt P35408). Put plainly: Test for antagonism of the human EP4 receptor signal (cAMP HTRF). The experiment is classed as cell-based. Particulars: cells expressing hEP4, PGE2 at EC80 (0.4 nM), cAMP TR-FRET; read-out: Antagonism hEP4 IC50. The source says:
The binding of the agonist prostaglandin E2 (PGE2) to the EP4 subtype of human hPGE2-R (hEP4-R) induces the activation of membrane-bound adenylate cyclases and thus the formation of cAMP. In the presence of the phosphodiesterase inhibitor IBMX, this cAMP accumulates intracellularly and is employed in a competitive detection procedure after cell lysis. In this procedure, it competes with a fluorescence-labelled cAMP (cAMP-d2) for binding to an Eu cryptate-labelled anti-cAMP antibody. In the absence of cellular cAMP, a complex is formed between the Eu cryptate-labelled anti-cAMP antibody and the cAMP-d2 molecule, which after excitation at 337 nm makes possible an energy transfer based on FRET (fluorescence resonance energy transfer) to the cAMP-d2 tracer and leads to a long-lasting fluorescence signal (emission at 665 and 620 nm). This signal is time-resolved, i.e. measured in a suitable measuring apparatus after decay of the background fluorescence (time resolved; TR-FRET). The wave ratio determination (emission 665 nm/emission 620 nm*10000) moreover makes it possible to standardize individual measurement differences in the added amounts of the detection reagents.
By means of prostaglandin E2 administration and increase in the intracellular cAMP, a lowering of the FRET signal occurs, which in the case of an antagonistic substance action increases again.
A further 20 min at room temperature later, the cell lysate is measured according to the manufacturer's instructions in a TR-FRET-suitable measuring apparatus (compare cAMP HTRF assay kit: Cisbio International 62AM6PEJ high range)
Sequence of human EP4 receptor (P35408 whole entry): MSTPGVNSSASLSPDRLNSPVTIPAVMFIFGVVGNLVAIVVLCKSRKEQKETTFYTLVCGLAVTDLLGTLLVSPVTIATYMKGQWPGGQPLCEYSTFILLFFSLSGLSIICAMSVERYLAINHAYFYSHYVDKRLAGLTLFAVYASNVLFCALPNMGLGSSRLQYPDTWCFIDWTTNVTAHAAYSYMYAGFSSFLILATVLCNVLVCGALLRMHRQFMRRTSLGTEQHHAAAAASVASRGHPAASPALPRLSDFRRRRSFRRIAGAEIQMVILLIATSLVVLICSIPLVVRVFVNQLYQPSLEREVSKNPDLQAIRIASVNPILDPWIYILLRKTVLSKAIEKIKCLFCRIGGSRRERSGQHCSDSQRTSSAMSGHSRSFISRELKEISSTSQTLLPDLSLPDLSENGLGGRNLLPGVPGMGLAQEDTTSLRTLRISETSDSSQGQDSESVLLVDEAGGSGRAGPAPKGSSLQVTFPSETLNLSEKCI
`CCn1c2ccccc2c2cc(-c3nc4cc(C(=O)O)c(F)cc4n3CC3CC3)ccc21` [Example 112, 1-(Cyclopropylmethyl)-2-(9-ethyl-9H-carbazol-3-yl)-6-fluoro-1H-benzimidazole-5-carboxylic acid]: the IC50 came to 34.6 nM. In the case of `CCOC(=O)c1ccc2c(c1)nc(-c1ccc3c(c1)c1ccccc1n3CC)n2CCN1CCCC1` [Example 37, Ethyl 2-(9-ethyl-9H-carbazol-3-yl)-1-[2-(pyrrolidin-1-yl)ethyl]-1H-benzimidazole-5-carboxylate], the IC50 turned out to be 3780 nM. `CCn1c2ccccc2c2cc(-c3nc4cc(C(=O)O)ccc4n3C[C@@H]3COCCO3)ccc21` [Example 139, 1-[(2R)-1,4-Dioxan-2-ylmethyl]-2-(9-ethyl-9H-carbazol-3-yl)-1H-benzimidazole-5-carboxylic acid]: the IC50 is 252 nM. In the case of `CCn1c2ccccc2c2cc(-c3nc4cc(C(=O)N5CC(O)C5)ccc4n3CC3CC3)ccc21` [Example 23, [1-(Cyclopropylmethyl)-2-(9-ethyl-9H-carbazol-3-yl)-1H-benzimidazol-5-yl](3-hydroxyazetidin-1-yl)methanone], the IC50 is 143 nM. With `CCn1c2ccccc2c2cc(-c3nc4cc(C(=O)NS(=O)(=O)CCc5ccc(C(F)(F)F)cc5)ccc4n3CCOC)ccc21` [Example 20, 2-(9-Ethyl-9H-carbazol-3-yl)-1-(2-methoxyethyl)-N-({2-[4-(trifluoromethyl)phenyl]ethyl}-sulphonyl)-1H-benzimidazole-5-carboxamide] the figure was 683 nM; with `CCn1c2ccccc2c2cc(-c3nc4cc(C(=O)O)ccc4n3CC3CCO3)ccc21` (stereo not shown) [Example 132, 2-(9-Ethyl-9H-carbazol-3-yl)-1-(oxetan-2-ylmethyl)-1H-benzimidazole-5-carboxylic acid], 24.5 nM.

Turning to `CCn1c2ccccc2c2cc(-c3nc4cc(C(N)=O)ccc4n3CC3CC3)ccc21` [Example 26, 1-(Cyclopropylmethyl)-2-(9-ethyl-9H-carbazol-3-yl)-1H-benzimidazole-5-carboxamide], the IC50 stood at 176 nM.

For the compound `CCn1c2ccccc2c2cc(-c3nc4cc(C(=O)NS(=O)(=O)Cc5c(Cl)cccc5Cl)ccc4n3CCOC)ccc21` [Example 60, N-[(2,6-Dichlorbenzyl)sulphonyl]-2-(9-ethyl-9H-carbazol-3-yl)-1-(2-methoxyethyl)-1H-benzimidazole-5-carboxamide], the IC50 was 19.8 nM. With `C#CCn1c2ccccc2c2cc(-c3nc4cc(C(=O)O)ccc4n3CCOC)ccc21` [Example 119, 1-(2-Methoxyethyl)-2-[9-(prop-2-yn-1-yl)-9H-carbazol-3-yl]-1H-benzimidazole-5-carboxylic acid] the figure was 43.7 nM; with `CCn1c2ccccc2c2cc(-c3nc4cc(C(=O)O)ccc4n3CCO)ccc21` [Example 91, 2-(9-Ethyl-9H-carbazol-3-yl)-1-(2-hydroxyethyl)-1H-benzimidazole-5-carboxylic acid], 113 nM; with `CCn1c2ccccc2c2cc(-c3nc4cc(C(=O)NS(=O)(=O)C(C)(C)C)ccc4n3CCOC)ccc21` [Example 39, N-(tert-Butylsulphonyl)-2-(9-ethyl-9H-carbazol-3-yl)-1-(2-methoxyethyl)-1H-benzimidazole-5-carboxamide], 768 nM. With `CCOC(=O)c1ccc2c(c1)nc(-c1ccc3c(c1)c1ccccc1n3CC)n2CCN(C)C` [Example 71, Ethyl-1-[2-(dimethylamino)ethyl]-2-(9-ethyl-9H-carbazol-3-yl)-1H-benzimidazole-5-carboxylate] the figure was 872 nM. With `Cn1c2ccccc2c2cc(-c3nc4cc(C(=O)O)ccc4n3CC3CC3)ccc21` [Example 34, 1-(Cyclopropylmethyl)-2-(9-methyl-9H-carbazol-3-yl)-1H-benzimidazole-5-carboxylic acid] the figure was 39.4 nM. For the compound `CCn1c2ccc(OC)cc2c2cc(-c3nc4cc(C(=O)O)ccc4n3CCOC)ccc21` [Example 32, 2-(9-Ethyl-6-methoxy-9H-carbazol-3-yl)-1-(2-methoxyethyl)-1H-benzimidazole-5-carboxylic acid], the IC50 was determined as 27.4 nM.

Consider `CCn1c2ccccc2c2cc(-c3nc4cc(C(=O)O)ccc4n3CCS(C)(=O)=O)ccc21` [Example 136, 2-(9-Ethyl-9H-carbazol-3-yl)-1-[2-(methylsulphonyl)ethyl]-1H-benzimidazole-5-carboxylic acid], for which the IC50 was 325 nM.

As for `CCn1c2ccccc2c2cc(-c3nc4cc(C(=O)O)ccc4n3CC3CC3(C)C)ccc21` (stereo not shown) [Example 121, 1-[(2,2-Dimethylcyclopropyl)methyl]-2-(9-ethyl-9H-carbazol-3-yl)-1H-benzimidazole-5-carboxylic acid], the IC50 is 100 nM. In the case of `CCn1c2ccccc2c2cc(-c3nc4cc(C(=O)O)ccc4n3C)ccc21` [Example 94, 2-(9-Ethyl-9H-carbazol-3-y1)-1-methyl-1 H-benzimidazole-5-carboxylic acid] it was 195 nM; in that of `CCn1c2ccccc2c2cc(-c3nc4c(Cl)c(C(=O)OC)ccc4n3CC3CC3)ccc21` [Example 7, Methyl 4-chloro-1-(cyclopropylmethyl)-2-(9-ethyl-9H-carbazol-3-yl)-1H-benzimidazole-5-carboxylate], 1430 nM.

For the compound `CCOC(=O)c1ccc2c(c1)nc(-c1ccc3c(c1)c1ccccc1n3CC)n2C(C)C` [Example 92, Ethyl 2-(9-ethyl-9H-carbazol-3-yl)-1-isopropyl-1H-benzimidazole-5-carboxylate], the IC50 is 8000 nM. In the case of `CCn1c2ccccc2c2cc(-c3nc4cc(C(=O)NS(=O)(=O)c5cccc(C)c5)ccc4n3CCOC)ccc21` [Example 47, 2-(9-Ethyl-9H-carbazol-3-yl)-1-(2-methoxyethyl)-N-[(3-methylphenyl)sulphonyl]-1H-benzimidazole-5-carboxamide] it was 25.6 nM; in that of `C=CCn1c(-c2ccc3c(c2)c2ccccc2n3CC)nc2cc(C(=O)O)ccc21` [Example 2, 1-Allyl-2-(9-ethyl-9H-carbazol-3-yl)-1H-benzimidazole-5-carboxylic acid], 312 nM. With `CCn1c2ccccc2c2cc(-c3nc4cc(C(=O)O)ccc4n3CC3CCCO3)ccc21` (stereo not shown) [Example 133, 2-(9-Ethyl-9H-carbazol-3-yl)-1-(tetrahydrofuran-2-ylmethyl)-1H-benzimidazole-5-carboxylic acid] the figure was 7 nM; with `CCn1c2ccccc2c2cc(-c3nc4cc(C(=O)O)ccc4n3CC(O)C3CC3)ccc21` (stereo not shown) [Example 137, 1-(2-Cyclopropyl-2-hydroxyethyl)-2-(9-ethyl-9H-carbazol-3-yl)-1H-benzimidazole-5-carboxylic acid], 18.6 nM. With `CCn1c2ccccc2c2cc(-c3nc4cc(C(=O)NC)ccc4n3CC3CC3)ccc21` [Example 24, 1-(Cyclopropylmethyl)-2-(9-ethyl-9H-carbazol-3-yl)-N-methyl-1H-benzimidazole-5-carboxamide] the figure was 338 nM. On to `CCn1c2ccccc2c2cc(-c3nc4cc(C(=O)N5CCCC5)ccc4n3CC3CC3)ccc21` [Example 22, [1-(Cyclopropylmethyl)-2-(9-ethyl-9H-carbazol-3-yl)-1H-benzimidazol-5-yl](pyrrolidin-1-yl)methanone], for which the IC50 amounted to 65.7 nM.

Values taken from patent US9708311B2, “Benzimidazole derivatives as EP4 antagonists” (BAYER PHARMA AKTIENGESELLSCHAFT, priority 2012, dated 2017).
